# Measured values reported in patent US4946779A, “Pseudo-aminosugars, their production and use” (Takeda Chemical Industries, Ltd., priority 1981, dated 1990).
# Experiments:
# rats = experiment: Toxicity, LD50 in rats; format: in vivo
# [1] = molecular target: maltase prepared from porcine intestinal mucosa; experiment: maltase inhibitory activity, maltose as substrate; format: biochemical; settings: substrate 0.05 M maltose, read-out: IC50 (M), concentration of 50% inhibition
# Experimental: (§1) The inhibitory activities of the compounds of this invention against α-glucosidase (yeast, type I, produced by Sigma Chemical Co.,U.S.A.)as well as maltase and saccharase prepared from porcine intestinal mucosa (prepared in accordance with the procedure as described by B. Borgstroom and A. Dahlgvist in Acta Chem. Scand.; 12, 1997-2006, (1958)), when maltose and sucrose are used as a substrate, are determined by adding to 0.25 ml of a solution of an enzyme prepared by diluting suitably with 0.02 M phosphate buffer (pH 6.8) 0.5 ml of a solution of an inhibitory substance to be tested in the same buffer and 0.25 ml of 0.05 M maltose or 0.05 M sucrose as the substrate in the same buffer allowing the mixture to react at 37° C. for 10 minutes, then adding 3 ml of Glucose B-Test Reagent (a glucose oxidase reagent for measurement of glucose, produced by Wako Pure Chemical Co., Japan), further warming the mixture at 37° C. for 20 minutes and measuring the absorbance of the reaction solution at 505 nm.
# Solubility in solvents = format: physicochemical
# [2] = molecular target: T1, saccharase prepared from porcine intestinal mucosa (Sus scrofa, UniProt P56729); experiment: saccharase inhibitory activity, sucrose as substrate; format: biochemical; settings: substrate 0.05 M sucrose, read-out: IC50 (M), concentration of 50% inhibition
# T1 construct: sucrase is the C-terminal subunit cleaved from the SI precursor, paired with isomaltase
# T1 sequence (P56729 with tags, fused parts or gaps): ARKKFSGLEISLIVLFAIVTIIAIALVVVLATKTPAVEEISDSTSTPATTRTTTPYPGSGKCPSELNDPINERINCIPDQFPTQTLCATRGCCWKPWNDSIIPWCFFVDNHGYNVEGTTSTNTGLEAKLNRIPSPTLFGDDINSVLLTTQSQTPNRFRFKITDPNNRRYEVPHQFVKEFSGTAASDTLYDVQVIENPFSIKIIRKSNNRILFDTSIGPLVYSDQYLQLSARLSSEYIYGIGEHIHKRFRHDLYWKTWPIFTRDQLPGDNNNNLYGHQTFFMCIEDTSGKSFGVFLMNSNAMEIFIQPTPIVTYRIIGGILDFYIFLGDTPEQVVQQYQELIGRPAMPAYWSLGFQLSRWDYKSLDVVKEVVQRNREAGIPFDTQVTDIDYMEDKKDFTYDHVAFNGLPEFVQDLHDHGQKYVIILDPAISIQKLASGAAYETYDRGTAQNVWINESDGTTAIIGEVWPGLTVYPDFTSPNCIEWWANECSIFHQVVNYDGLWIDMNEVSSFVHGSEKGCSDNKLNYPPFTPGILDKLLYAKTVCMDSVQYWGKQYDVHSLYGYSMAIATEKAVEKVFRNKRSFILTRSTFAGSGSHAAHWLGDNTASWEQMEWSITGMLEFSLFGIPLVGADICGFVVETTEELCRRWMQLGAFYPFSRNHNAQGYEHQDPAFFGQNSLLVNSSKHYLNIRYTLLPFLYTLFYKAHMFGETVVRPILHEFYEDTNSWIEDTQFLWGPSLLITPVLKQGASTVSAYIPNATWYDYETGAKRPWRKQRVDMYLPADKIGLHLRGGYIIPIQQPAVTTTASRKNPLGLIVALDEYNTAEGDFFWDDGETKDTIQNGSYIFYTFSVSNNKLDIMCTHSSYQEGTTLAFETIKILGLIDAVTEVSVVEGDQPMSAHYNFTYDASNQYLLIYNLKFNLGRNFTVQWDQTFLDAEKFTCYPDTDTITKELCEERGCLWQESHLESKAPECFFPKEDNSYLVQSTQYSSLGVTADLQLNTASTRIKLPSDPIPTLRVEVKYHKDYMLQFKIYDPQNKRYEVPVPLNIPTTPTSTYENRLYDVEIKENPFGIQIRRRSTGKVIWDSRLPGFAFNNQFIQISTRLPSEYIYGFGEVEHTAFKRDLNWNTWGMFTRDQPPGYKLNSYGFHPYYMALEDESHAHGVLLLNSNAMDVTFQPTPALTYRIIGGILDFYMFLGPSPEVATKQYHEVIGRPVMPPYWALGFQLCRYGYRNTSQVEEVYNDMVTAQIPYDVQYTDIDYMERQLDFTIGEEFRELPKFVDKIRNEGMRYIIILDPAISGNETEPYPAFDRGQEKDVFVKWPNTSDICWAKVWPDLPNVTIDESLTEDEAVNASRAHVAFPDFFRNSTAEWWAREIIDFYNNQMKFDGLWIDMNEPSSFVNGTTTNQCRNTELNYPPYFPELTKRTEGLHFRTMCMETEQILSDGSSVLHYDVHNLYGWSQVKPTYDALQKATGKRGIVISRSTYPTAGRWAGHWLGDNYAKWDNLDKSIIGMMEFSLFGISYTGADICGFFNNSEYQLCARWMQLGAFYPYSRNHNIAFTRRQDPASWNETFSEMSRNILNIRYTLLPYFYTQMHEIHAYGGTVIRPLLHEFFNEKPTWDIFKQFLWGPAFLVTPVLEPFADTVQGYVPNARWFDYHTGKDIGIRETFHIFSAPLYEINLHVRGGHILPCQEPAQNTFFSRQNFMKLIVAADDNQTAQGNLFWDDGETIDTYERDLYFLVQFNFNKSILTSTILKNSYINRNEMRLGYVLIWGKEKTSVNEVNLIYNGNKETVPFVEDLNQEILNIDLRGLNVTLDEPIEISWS
# Experimental: as §1
# [3] = in ethanol, ethyl acetate, chloroform, acetone
# [4] = in water, dimethylsulfoxide, methanol
SMILES,LD50 (rats),IC50 [1],Solubility (Solubility in solvents; [3]),Solubility (Solubility in solvents; [4]),IC50 [2]
"NC1CC(O)(CO)C(O)C(O)C1O (centres unmarked) [compound [I], 5-amino-1-hydroxymethyl-1,2,3,4-cyclohexanetetrol]",≥ 500 mg,,,,
N[C@H]1C[C@](O)(CO)C(O)C(O)C1O (some centres unmarked) [epivaliolamine],,0.00014 M,Sparing soluble or insoluble,Soluble,
"N[C@H]1C[C@](O)(CO)[C@@H](O)[C@H](O)[C@H]1O [valiolamine, 1L(1S)-(1(OH), 2,4,5/1(CH2 OH),3)-5-amino-1-hydroxymethyl-1,2,3,4-cyclohexanetetrol]",,2.2e-06 M,Sparingly soluble or insoluble,Soluble,4.9e-08 M
